Test results reported in ChEMBL document CHEMBL3097992, “Comparative molecular field analysis of fenoterol derivatives interacting with an agonist-stabilized form of the β₂-adrenergic receptor” (Bioorg Med Chem, 2014).

Experiments:
[1] = biological target: T1, Beta-2 adrenergic receptor (Homo sapiens, UniProt P07550); assay: Displacement of [3H]-(R,R')-methoxyfenoterol from human beta2 adrenergic receptor expressed in HEK cells by liquid scintillation counting analysis; assay type: cell-based, HEK293
T1 sequence (P07550 whole entry): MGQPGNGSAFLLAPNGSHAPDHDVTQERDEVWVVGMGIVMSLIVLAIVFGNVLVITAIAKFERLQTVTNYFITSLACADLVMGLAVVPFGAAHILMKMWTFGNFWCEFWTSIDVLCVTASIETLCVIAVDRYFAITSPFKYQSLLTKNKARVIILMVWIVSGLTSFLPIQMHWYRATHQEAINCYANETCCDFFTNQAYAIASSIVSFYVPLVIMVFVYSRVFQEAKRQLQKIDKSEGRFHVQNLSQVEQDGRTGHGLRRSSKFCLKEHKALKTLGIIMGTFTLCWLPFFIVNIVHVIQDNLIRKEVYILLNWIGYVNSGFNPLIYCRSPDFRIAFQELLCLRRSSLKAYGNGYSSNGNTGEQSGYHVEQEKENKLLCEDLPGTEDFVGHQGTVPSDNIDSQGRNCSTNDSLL

[2] = biological target: T1, Beta-2 adrenergic receptor; assay: Agonist activity at human beta2 adrenergic receptor expressed in HEK293 cells assessed as stimulation of cAMP accumulation; assay type: functional, cell-based
[3] = biological target: T1, Beta-2 adrenergic receptor; assay: Displacement of [3H]-CGP-12177 from human beta2 adrenergic receptor expressed in HEK cells by liquid scintillation counting analysis; assay type: cell-based, HEK293

Row | Compound | Ki [1] [µM] | EC50 [2] [µM] | Ki [3] [µM]
1 | CC[C@H](Cc1ccc(OC)cc1)NC[C@H](O)c1cc(O)cc(O)c1 | 0.0357 | 0.00163 | 0.42
2 | CC[C@H](Cc1ccc(O)cc1)NC[C@H](O)c1cc(O)cc(O)c1 | 0.0391 |  | 
3 | COc1ccc(C[C@@H](NC[C@H](O)c2cc(O)cc(O)c2)C(C)C)cc1 | 3.42 | 6.1 | > 100
4 | CC[C@@H](Cc1ccc(OC)cc1)NC[C@H](O)c1cc(O)cc(O)c1 | 4.3 | 1.01 | 20.1
5 | COc1ccc(C[C@H](NC[C@H](O)c2cc(O)cc(O)c2)C(C)C)cc1 | 29.2 | 26.2 | > 100
6 | CC[C@@H](Cc1ccc(O)cc1)NC[C@H](O)c1cc(O)cc(O)c1 | 0.294 |  | 
